Data taken from paper PMC8245078, “Development of novel benzofuran-isatin conjugates as potential antiproliferative agents with apoptosis inducing mechanism in Colon cancer” (Journal of Enzyme Inhibition and Medicinal Chemistry, 2021).
Like-named read-outs stand apart in the source and are kept apart here.

Experiments:
[1] = test system: HT-29 colorectal cancer cell line; assay: MTT cell viability assay; type: cell-based, human; settings: for inhibition of HT-29 cancer cells viability: 10 µM, 24 h, MTT
Procedure: In the present investigation a new set of benzofuran–isatin hybrids (5a–e and 7a–i) was synthesised to be evaluated for their potential anticancer activity towards two human colorectal cancer cell lines, SW-620 and HT-29. […] Both, SW-620 and HT-29 cells were treated with 10 µM of each compound for 24 h and the percent cell viability was calculated using MTT assay.
For this reason, compounds 5a and 5d were pursued for further studies. Starting with determination of IC50s and cytotoxic selectivity studies. Serial concentrations of compounds 5a and 5d were used to examine their impact on cell viability using MTT protocol. Results of concentration vs percent viability were charted, and the IC50 was calculated for SW-620 and HT-29 cell lines using Graph Pad prism 8 (Figure 4). […]
[(Ti-Tz)/Tz] x 100 for concentrations for which Ti<Tz […]
SW620 and HT29 colorectal cancer cell lines and HFF-1 fibroblast (ATCC, Rockville, USA) were used. HT29 cells were cultured and maintained in Dulbecco’s Modified Eagles Medium (DMEM) (GIBCO, by Thermo Fischer Scientific, NY, USA) supplemented with 10% fetal bovine serum (FBS), 100 units/mL penicillin, and 100 μg streptomycin. SW620 and HFF-1 cells were cultured in Roswell Park Memorial Institute medium (RPMI-1640) (GIBCO, by Thermo scientific, NY, USA) supplemented with 10% FBS and 1% penicillin and streptomycin (Napolitano et al., 2015). All cultures were incubated at 37 °C and humidified atmosphere of 5% […]
2.3. Cell Viability Assay
The cytotoxicity effect of compounds on the colorectal cancer cell lines, SW620 and HT29 in addition to the normal human fibroblasts was measured by MTT (3-(4, 5-dimethylthiazol-2-yl)-2,5-diphenyltetrazolium bromide) (Sigma-Aldrich, St. Louis, MO, USA) as previously described. Briefly, cells were seeded in 96 well culture plates at 5000/well for HT29 and 10,000/well for SW620 for 24 h. Cells were then incubated with different compounds from WAG1 series (1-15) 24h at 37 °C and humidified 5% CO2 incubator. Freshly prepared 10 μl of 3-(4,5-dimethylthiazol-2-yl)-2,5-diphenyltetrazolium bromide (MTT 5 mM) solution were added to the cells and further incubated for 2 h. Thereafter, 100 μl of dimethyl sulfoxide (DMSO) were added in each well and the crystals were dissolved through careful pipetting. […]
VA, USA). The experiments were performed in triplicate for each condition. […]
The total protein concentration was evaluated by the colorimetric
Bradford protein assay (BIO-RAD inc, CA, USA) at 595 nm absorbance. Lysates were loaded in […]

[2] = test system: human skin fibroblast (HFF-1) normal cells; assay: MTT cell viability assay on normal cells; type: cell-based; settings: HFF-1, incubation for 24 h
Procedure: Furthermore, selective cytotoxicity of compounds 5a and 5d was studied on human skin fibroblast (HFF-1) normal cells. […]
each well, and plates were incubated for 10 minutes at room temperature. After staining, unbound dye was removed by washing five times with 1 % acetic acid and the plates were air dried. Bound stain was subsequently solubilized with 10 mM trizma base, and the absorbance was read on an automated plate reader at a wavelength of 515 nm. For suspension cells, the methodology was the same except that the assay was terminated by fixing settled cells at the bottom of the wells by gently adding 50 μL of 80 % TCA (final concentration, 16 % TCA).
Using the seven absorbance measurements [time zero, (Tz), control growth, (C), and test growth in the presence of drug at the five concentration levels (Ti)], the percentage growth was calculated at each of the drug concentrations levels. Percentage growth inhibition was calculated […]
Three dose response parameters were calculated for each experimental agent. […] The drug concentration resulting in total growth inhibition (TGI) was calculated from Ti = Tz. […]
The cytotoxicity effect of compounds on the colorectal cancer cell lines, SW620 and HT29 in addition to the normal human fibroblasts was measured by MTT (3-(4, 5-dimethylthiazol-2-yl)-2,5-diphenyltetrazolium bromide) (Sigma-Aldrich, St. Louis, MO, USA) as previously described. […]

RPMI-8226 = assay: NCI single dose screening (10 µM); type: cell-based; settings: Homo sapiens
[3] = Homo sapiens, HT-29, HT-29, MTT
[4] = RPMI-8226, Leukaemia, single dose 10^−5 M, read-out: GI% (cell growth inhibition percentage)

| SMILES | inhibition of HT-29 cancer cells viability [1] | IC50 ([1]; HT-29, MTT) | IC50 [1, 3] | effect on fibroblast normal cell viability [2] | inhibition at 10 µM (RPMI-8226; [4]) | also measured |
| --- | --- | --- | --- | --- | --- | --- |
| Cc1c(C(=O)N/N=C2\C(=O)Nc3ccccc32)oc2ccccc12 [Compound 5a] | > 50% | 8.7 µM | 9.4 µM | little effect | – | – |
| Cc1c(C(=O)N/N=C2\C(=O)N(Cc3ccccc3)c3ccccc32)oc2ccccc12 [Compound 7d] | – | – | – | – | – | inhibition at 10 µM (RPMI-8226; RPMI-8226, read-out: GI% (cell growth inhibition percentage)): < 10% |
| Cc1c(C(=O)N/N=C2\C(=O)Nc3ccc(Br)cc32)oc2ccccc12 [Compound 5c] | – | – | – | – | < 10% | – |
| COc1ccc2c(c1)/C(=N/NC(=O)c1oc3ccccc3c1C)C(=O)N2 [Compound 5d] | > 50% | 6.5 µM | 9.8 µM | little effect | – | – |
| CCCN1C(=O)/C(=N\NC(=O)c2oc3ccccc3c2C)c2ccccc21 [Compound 7b] | > 50% | – | – | – | – | – |
| Cc1c(C(=O)N/N=C2\C(=O)Nc3ccc(F)cc32)oc2ccccc12 [Compound 5b] | – | – | – | – | < 10% | – |
